Measured values: the NIST ThermoML archive (doi:10.1021/je0400052)
± gives the expanded uncertainty stated by the source.

Assays:
[1] = xn = mol fraction of the nth substance listed; settings: 101.3 kPa, Liquid
[2] = refractive index (Na D-line) (dimensionless); xn = mol fraction of the nth substance listed; settings: 101.3 kPa, Liquid

CCOC=O [ethyl methanoate] + CCc1ccccc1
Settings	mass density, [1] [kg/m3]	refractive index, [2]	viscosity, [1] [mPa·s]
303.15 K, x1 = 0.1478	862.2 ± 3.5	1.4809 ± 0.005	0.558 ± 0.015
303.15 K, x1 = 0.2728	869.9 ± 3.6	1.4691 ± 0.005	0.527 ± 0.015
303.15 K, x1 = 0.3884	871.2 ± 3.6	1.4568 ± 0.005	0.499 ± 0.014
303.15 K, x1 = 0.4978	876.3 ± 3.6	1.4431 ± 0.005	0.473 ± 0.014
303.15 K, x1 = 0.6	881.8 ± 3.6	1.4286 ± 0.005	0.45 ± 0.013
303.15 K, x1 = 0.6925	886.6 ± 3.6	1.4157 ± 0.005	0.43 ± 0.013
303.15 K, x1 = 0.7768	891 ± 3.7	1.4058 ± 0.005	0.413 ± 0.012
303.15 K, x1 = 0.851	896.6 ± 3.7	1.3938 ± 0.005	0.397 ± 0.012
303.15 K, x1 = 0.9309	903.7 ± 3.7	1.3709 ± 0.005	0.38 ± 0.011
313.15 K, x1 = 0.1478	853.7 ± 3.8	1.4791 ± 0.005	0.502 ± 0.014
313.15 K, x1 = 0.2728	857.7 ± 3.9	1.4682 ± 0.005	0.476 ± 0.014
313.15 K, x1 = 0.3884	861.8 ± 3.9	1.4532 ± 0.005	0.452 ± 0.013
313.15 K, x1 = 0.4978	866.3 ± 3.9	1.4415 ± 0.005	0.42 ± 0.012
313.15 K, x1 = 0.6	873.2 ± 3.9	1.4269 ± 0.005	0.409 ± 0.012
313.15 K, x1 = 0.6925	875.9 ± 3.9	1.4142 ± 0.005	0.391 ± 0.012
313.15 K, x1 = 0.7768	880 ± 4	1.4042 ± 0.005	0.376 ± 0.011
313.15 K, x1 = 0.851	885.1 ± 4	1.3921 ± 0.005	0.363 ± 0.011
313.15 K, x1 = 0.9309	891.7 ± 4	1.3695 ± 0.005	0.351 ± 0.011

CCOC=O [ethyl methanoate] + Cc1ccc(C)cc1
Settings	mass density, [1] [kg/m3]	refractive index, [2]	viscosity, [1] [mPa·s]
303.15 K, x1 = 0.1658	857.7 ± 3.5	1.4785 ± 0.0099	0.523 ± 0.015
303.15 K, x1 = 0.2572	861.1 ± 3.5	1.4746 ± 0.0099	0.503 ± 0.014
303.15 K, x1 = 0.4068	868.2 ± 3.5	1.4671 ± 0.0099	0.472 ± 0.014
303.15 K, x1 = 0.5039	871.6 ± 3.6	1.4532 ± 0.0099	0.452 ± 0.013
303.15 K, x1 = 0.6037	878.8 ± 3.6	1.451 ± 0.0099	0.434 ± 0.013
303.15 K, x1 = 0.6916	883.4 ± 3.6	1.4239 ± 0.01	0.418 ± 0.012
303.15 K, x1 = 0.7854	889.6 ± 3.7	1.4121 ± 0.0099	0.403 ± 0.012
303.15 K, x1 = 0.8588	896 ± 3.7	1.3901 ± 0.0099	0.39 ± 0.012
303.15 K, x1 = 0.9381	902.9 ± 3.7	1.3711 ± 0.0099	0.375 ± 0.011
313.15 K, x1 = 0.1658	849 ± 3.8	1.4779 ± 0.0099	0.477 ± 0.014
313.15 K, x1 = 0.2572	851.7 ± 3.8	1.4732 ± 0.0099	0.451 ± 0.013
313.15 K, x1 = 0.4068	858.8 ± 3.9	1.4611 ± 0.0099	0.424 ± 0.012
313.15 K, x1 = 0.5039	861.8 ± 3.9	1.4499 ± 0.0099	0.407 ± 0.012
313.15 K, x1 = 0.6037	868.8 ± 3.9	1.4491 ± 0.01	0.393 ± 0.012
313.15 K, x1 = 0.6916	873.5 ± 3.9	1.4201 ± 0.0099	0.38 ± 0.011
313.15 K, x1 = 0.7854	877.8 ± 4	1.4091 ± 0.0099	0.371 ± 0.011
313.15 K, x1 = 0.8588	884.7 ± 4	1.3891 ± 0.0099	0.36 ± 0.011
313.15 K, x1 = 0.9381	891 ± 4	1.3689 ± 0.0099	0.348 ± 0.011

CCOC=O [ethyl methanoate] + Cc1cccc(C)c1
Settings	mass density, [1] [kg/m3]	refractive index, [2]	viscosity, [1] [mPa·s]
303.15 K, x1 = 0.1348	858.3 ± 3.5	1.4892 ± 0.0099	0.524 ± 0.015
303.15 K, x1 = 0.2728	863.3 ± 3.5	1.4695 ± 0.0099	0.494 ± 0.014
303.15 K, x1 = 0.3968	868.7 ± 3.5	1.4561 ± 0.0099	0.467 ± 0.013
303.15 K, x1 = 0.4988	873.1 ± 3.6	1.4391 ± 0.0099	0.449 ± 0.013
303.15 K, x1 = 0.6032	877.7 ± 3.6	1.4288 ± 0.0099	0.43 ± 0.013
303.15 K, x1 = 0.6923	882.8 ± 3.6	1.4265 ± 0.0099	0.414 ± 0.012
303.15 K, x1 = 0.7867	888.4 ± 3.6	1.4055 ± 0.0099	0.398 ± 0.012
303.15 K, x1 = 0.8591	895 ± 3.7	1.3875 ± 0.01	0.386 ± 0.012
303.15 K, x1 = 0.9379	900.1 ± 3.7	1.3856 ± 0.0099	0.373 ± 0.011
313.15 K, x1 = 0.1348	849.8 ± 3.8	1.482 ± 0.0099	0.479 ± 0.014
313.15 K, x1 = 0.2728	854.4 ± 3.8	1.4679 ± 0.0099	0.453 ± 0.013
313.15 K, x1 = 0.3968	859.5 ± 3.8	1.4578 ± 0.0099	0.431 ± 0.013
313.15 K, x1 = 0.4988	864.3 ± 3.9	1.438 ± 0.0099	0.412 ± 0.012
313.15 K, x1 = 0.6032	869.2 ± 3.9	1.4276 ± 0.0099	0.397 ± 0.012
313.15 K, x1 = 0.6923	874.3 ± 3.9	1.4253 ± 0.0099	0.384 ± 0.012
313.15 K, x1 = 0.7867	880.1 ± 3.9	1.4043 ± 0.0099	0.369 ± 0.011
313.15 K, x1 = 0.8591	884.1 ± 4	1.385 ± 0.0099	0.357 ± 0.011
313.15 K, x1 = 0.9379	889.7 ± 4	1.3841 ± 0.0099	0.347 ± 0.011

CCOC=O [ethyl methanoate] + Cc1ccccc1C
Settings	mass density, [1] [kg/m3]	refractive index, [2]	viscosity, [1] [mPa·s]
303.15 K, x1 = 0.1467	872.7 ± 3.5	1.4906 ± 0.0099	0.63 ± 0.017
303.15 K, x1 = 0.2667	877.4 ± 3.6	1.4873 ± 0.0099	0.586 ± 0.016
303.15 K, x1 = 0.3779	880 ± 3.6	1.4786 ± 0.0099	0.544 ± 0.015
303.15 K, x1 = 0.4984	882.6 ± 3.6	1.4721 ± 0.0099	0.502 ± 0.014
303.15 K, x1 = 0.5936	886.9 ± 3.6	1.4631 ± 0.0099	0.471 ± 0.014
303.15 K, x1 = 0.694	891.2 ± 3.7	1.4347 ± 0.01	0.444 ± 0.013
303.15 K, x1 = 0.7791	896.7 ± 3.7	1.4072 ± 0.0099	0.42 ± 0.012
303.15 K, x1 = 0.8563	901.2 ± 3.7	1.3981 ± 0.0099	0.4 ± 0.012
303.15 K, x1 = 0.9337	903.7 ± 3.8	1.3729 ± 0.0099	0.378 ± 0.011
313.15 K, x1 = 0.1467	864.6 ± 3.9	1.4896 ± 0.0099	0.558 ± 0.015
313.15 K, x1 = 0.2667	868.5 ± 3.9	1.4819 ± 0.0099	0.521 ± 0.015
313.15 K, x1 = 0.3779	871.9 ± 3.9	1.4735 ± 0.0099	0.487 ± 0.014
313.15 K, x1 = 0.4984	873.7 ± 3.9	1.4671 ± 0.0099	0.452 ± 0.013
313.15 K, x1 = 0.5936	876.9 ± 3.9	1.4612 ± 0.01	0.43 ± 0.013
313.15 K, x1 = 0.694	881.6 ± 4	1.4216 ± 0.0099	0.402 ± 0.012
313.15 K, x1 = 0.7791	885.9 ± 4	1.4061 ± 0.0099	0.382 ± 0.012
313.15 K, x1 = 0.8563	889.6 ± 4	1.3969 ± 0.0099	0.366 ± 0.011
313.15 K, x1 = 0.9337	891.1 ± 4.1	1.3701 ± 0.0099	0.359 ± 0.011
